Test results taken from ChEMBL document CHEMBL1150251, “SAR and QSAR study on 2-aminothiazole derivatives, modulators of transcriptional repression in Huntington's disease” (Bioorg Med Chem, 2008).

System: ST14A
Experiment: Modulation of RE1/NRSE expressed in ST14A cells assessed as increase in luciferase reporter activity at 50 nM after 72 hrs relative to control
Format: cell-based

In order of rising Activity:
1. COc1ccc(Cl)c(Nc2nc(-c3c(C)nc4ncccn34)cs2)c1  0.74
2. Cc1nc2ccccn2c1-c1csc(N)n1  0.87
3. Cc1nc2ncccn2c1-c1csc(Nc2ccc(O)cc2)n1  0.89
4. COc1ccc(Cl)c(Nc2nc(-c3c(C)nc4sccn34)cs2)c1  0.91
5. C=CCNc1nc(-c2c(C)nc3ccccn23)cs1  0.91
6. Cc1nc2ccccn2c1-c1csc(NC(=O)c2ccc(Br)cc2)n1  0.94
7. CCOc1ccccc1Nc1nc(-c2c(C)nc3cc(C)ccn23)cs1  0.94
8. Cc1nc2ccccn2c1-c1csc(NC(=O)c2ccco2)n1  0.94
9. Cc1nc2sccn2c1-c1csc(Nc2ccc(O)cc2)n1  0.95
10. COc1ccccc1Nc1nc(-c2c(C)nc3ncccn23)cs1  0.97
11. Cc1nc2ccccn2c1-c1csc(NCc2ccccc2)n1  0.97
12. Cc1nc2ccccn2c1-c1csc(NC(=O)c2cccnc2)n1  0.98
13. Cc1ccnc(Nc2nc(-c3c(C)nc4ccccn34)cs2)c1  0.98
14. Cc1ccn2c(-c3csc(NCc4ccco4)n3)c(C)nc2c1  0.99
15. Cc1nc2ccccn2c1-c1csc(NC(=O)c2ccncc2)n1  1
16. Cc1nc2ccccn2c1-c1csc(Nc2ccccc2)n1  1.01
17. Cc1nc2ccccn2c1-c1csc(NCc2ccco2)n1  1.01
18. Cc1nc2ccccn2c1-c1csc(Nc2ccc(O)cc2)n1  1.02
19. COc1cc(Br)c(Nc2nc(-c3c(C)nc4ncccn34)cs2)c(Br)c1  1.03
20. Cc1nc2ccccn2c1-c1csc(Nc2cccc(O)c2)n1  1.04
21. CCN(CC)c1ccc(Nc2nc(-c3c(C)nc4sccn34)cs2)cc1  1.04
22. CCN(CC)c1ccc(Nc2nc(-c3c(C)nc4cc(C)ccn34)cs2)cc1  1.06
23. COc1cc(Br)c(Nc2nc(-c3c(C)nc4cc(C)ccn34)cs2)c(Br)c1  1.07
24. Cc1ccn2c(-c3csc(Nc4ccc(O)cc4)n3)c(C)nc2c1  1.08
25. CCN(CC)c1ccc(Nc2nc(-c3c(C)nc4ccccn34)cs2)cc1  1.09
26. COc1ccc(Cl)c(Nc2nc(-c3c(C)nc4ccccn34)cs2)c1  1.09
27. Cc1nc2ccccn2c1-c1csc(NC(=O)c2ccccc2)n1  1.09
28. Cc1ccn2c(-c3csc(Nc4ccc(C(=O)O)cc4)n3)c(C)nc2c1  1.12
29. CN(C)c1ccc(Nc2nc(-c3ccncc3)cs2)cc1  1.13
30. Cc1nc2sccn2c1-c1csc(Nc2ccc(N)cc2)n1  1.14
31. Cc1ccn2c(-c3csc(Nc4ccc(N)cc4)n3)c(C)nc2c1  1.14
32. Cc1ccn2c(-c3csc(Nc4cccc(C(=O)O)c4)n3)c(C)nc2c1  1.14
33. CCN(CC)c1ccc(Nc2nc(-c3c(C)nc4ncccn34)cs2)cc1  1.16
34. Cc1nc(N)sc1-c1csc(Nc2ccc(N(C)C)cc2)n1  1.23
35. Cc1nc2ccccn2c1-c1csc(Nc2ccc(N)cc2)n1  1.28
36. Cc1ccn2c(-c3csc(NCc4ccccc4)n3)c(C)nc2c1  1.3
37. CN(C)c1ccc(Nc2nc(-c3ccccc3)cs2)cc1  1.3
38. Cc1nc2sccn2c1-c1csc(Nc2ccc(N(C)C)cc2)n1  1.8
39. CCOc1ccc(Nc2nc(-c3c(C)nc4cc(C)ccn34)cs2)cc1  1.88
40. Cc1nc2ccccn2c1-c1csc(Nc2ccc(Br)cc2)n1  1.9
41. COc1ccc(Nc2nc(-c3c(C)nc4ccccn34)cs2)cc1  2
42. COc1ccc(Nc2nc(-c3c(C)nc4cc(C)ccn34)cs2)cc1  2.19
43. COc1ccc(Nc2nc(-c3c(C)nc4ncccn34)cs2)cc1  2.29
44. Cc1ccn2c(-c3csc(Nc4ccc(N(C)C)cc4)n3)c(C)nc2c1  2.55
45. Cc1nc2ncccn2c1-c1csc(Nc2ccc(N(C)C)cc2)n1  3.34
